Experimental data published in US20220016114A1, “Heart Rate Decreasing Agent” (FURUKAWA RESEARCH OFFICE CO., LTD., priority 2018, published 2022).
“Also recorded” adds a separate entry of the source.

Tested on: heart rate of a person
Assay: Variation in heart rate before and after oral ingestion of orotic acid tablets, at rest and after drinking
Type: in vivo, human
Conditions: for Symptoms (4 to 5 hours after orotic acid ingestion): placebo: languor
Procedure: Tablets consisting of orotic acid were orally ingested and the variation in heart rate was measured before and after oral ingestion. The test subject was a person. Although they were told at their medical checkup that their cholesterol was slightly high, they had not taken any medication and had no preexisting condition. Their blood pressure was in the normal range, and they had never been diagnosed with a blood pressure problem in the past. Their heart rate was slightly high at about 89 to 92 beats/min, and rarely fell below 86 beats/min even at rest. Since the heart rate quickly increases due to exercise and tension or the like, the measurement day was spent as much as possible doing desk work and the like, and the measurement was made under stable conditions after sitting on a chair for at least several minutes. They were drinking 2 cans of beer and 2 to 3 double glasses of shochu daily. Their heart rate after drinking was increasing to about 105 to 115 beats/min (120 beats/min in rare cases), and they were feeling drunk and mild palpitation. They were also feeling sleepy on some days. The test subject ingested a tablet containing 200 mg of orotic acid by oral administration, and the measurement of their heart rate was started.

Q: What does the source list for `O=C(O)c1cc(=O)[nH]c(=O)[nH]1` [Orotic acid, 1,2,3,6-tetrahydro-2,6-dioxo-4-pyrimidinecarboxylic acid]?
A: Overall effect on heart rate and on daily palpitation and fatigue (conclusion from Table 1, person, 200 mg oral): a decrease in heart rate was clearly observed; also recorded: improved the palpitation and fatigue that were felt on a daily basis; Heart rate after stabilisation (later than 4 hours after ingestion) (person, 200 mg oral): in the 70s beats/min to the lower 80s beats/min; Time after ingestion from which heart rate gradually decreased (person, 200 mg oral): about 2 hours; Symptoms (after drinking) (person, 200 mg oral, after usual beer and shochu, placebo: slight drunkenness, mild palpitation, drowsiness): felt almost no drunkenness or palpitation; Heart rate 1 to 2 hours after drinking (person, 200 mg oral, usual amount of beer and shochu after the decrease in heart rate, placebo 105 to 115 beats/min): 85 to 103 beats/min; Symptoms (4 to 5 hours after orotic acid ingestion) (person, 200 mg oral): Clear head; also recorded: No languor; Symptoms (4 to 5 hours after orotic acid ingestion) (person, 200 mg oral, listed as orotic acid): their head was more refreshed and no longer felt lethargic; Heart rate 4 hours after ingestion (person, 200 mg oral, usual heart rate about 89 to 92 beats/min): ≤ 80 beats/min; Heart rate 4 to 5 hours after orotic acid ingestion (person, tablet containing 200 mg orotic acid orally, sitting at rest, placebo 88 to 93 beats/min): 77 to 82 beats/min
